# Measured values as given in ChEMBL document CHEMBL1135000, “Stereoselective and improved syntheses and anticancer testing of 3'-O-silatranylthymidines” (Bioorg Med Chem Lett, 2002).
# What was measured:
# Hepatitis B virus [1] = assay: Effective concentration required for inhibition against hepatitis B virus in HBV-producing human liver cell line 2.2.15; assay type: functional, organism-based; settings: HepG2 2.2.15
# Hepatitis B virus [2] = assay: Cytotoxicity when tested for inhibition against hepatitis B virus in HBV-producing human liver cell line 2.2.15; assay type: functional; settings: HepG2 2.2.15
# Human alphaherpesvirus 1 = assay: Inhibition against herpes simplex virus type 1, measured by a cytopathic effect inhibition assay with human foreskin fibroblast (HFF)cells infected with HSV; Inactive; assay type: functional, organism-based; settings: Human alphaherpesvirus 1, HFF
# Human alphaherpesvirus 2 = assay: Inhibition against herpes simplex virus type 2, measured by a cytopathic effect inhibition assay with human foreskin fibroblast (HFF) cells infected with HSV; Inactive; assay type: functional, organism-based; settings: Human alphaherpesvirus 2, HFF
EC50 (Hepatitis B virus [1]),Structure (SMILES),CC50 (Hepatitis B virus [2]),EC50 (Human alphaherpesvirus 1),EC50 (Human alphaherpesvirus 2)
> 0.01 mM,Cc1cn([C@H]2C[C@H](O[Si]34OCCN(CCO3)CCO4)[C@@H](CO)O2)c(=O)[nH]c1=O,1.29 mM,,
,Cc1cn([C@H]2C[C@H](O[Si]34OC(C)CN(CC(C)O3)CC(C)O4)[C@@H](CO)O2)c(=O)[nH]c1=O (some centres undefined),,> 100 µg/mL,> 100 µg/mL
